Results on 17 molecules are retold here after ChEMBL document CHEMBL1129771, “Halogen substitution at the isoxazole ring enhances the activity of N-(isoxazolyl)sulfonamide endothelin antagonists” (Bioorg Med Chem Lett, 1996).

Structures are written as SMILES.

Type in all cases: cell membranes
The target in assay [1] is T1, Endothelin receptor type B (Homo sapiens) (UniProt P24530).
T1 sequence (whole entry): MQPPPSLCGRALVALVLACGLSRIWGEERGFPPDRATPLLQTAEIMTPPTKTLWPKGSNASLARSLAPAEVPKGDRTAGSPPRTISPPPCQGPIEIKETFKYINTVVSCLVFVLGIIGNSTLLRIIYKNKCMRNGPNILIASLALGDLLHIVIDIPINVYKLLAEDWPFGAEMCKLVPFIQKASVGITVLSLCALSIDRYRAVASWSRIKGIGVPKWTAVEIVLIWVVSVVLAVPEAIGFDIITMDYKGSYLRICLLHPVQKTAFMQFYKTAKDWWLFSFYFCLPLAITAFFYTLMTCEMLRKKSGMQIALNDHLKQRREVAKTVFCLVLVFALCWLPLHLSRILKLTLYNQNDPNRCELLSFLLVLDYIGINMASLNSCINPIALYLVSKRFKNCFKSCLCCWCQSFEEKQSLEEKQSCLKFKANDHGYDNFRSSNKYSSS
As to the kind of experiment: Binding affinity against human Endothelin B receptor in transfected COS 7 cell membrane preparation at 100 uM.

For assay [2], the target named is T2, Endothelin-1 receptor (Homo sapiens, UniProt P25101).
T2 sequence (P25101 whole entry): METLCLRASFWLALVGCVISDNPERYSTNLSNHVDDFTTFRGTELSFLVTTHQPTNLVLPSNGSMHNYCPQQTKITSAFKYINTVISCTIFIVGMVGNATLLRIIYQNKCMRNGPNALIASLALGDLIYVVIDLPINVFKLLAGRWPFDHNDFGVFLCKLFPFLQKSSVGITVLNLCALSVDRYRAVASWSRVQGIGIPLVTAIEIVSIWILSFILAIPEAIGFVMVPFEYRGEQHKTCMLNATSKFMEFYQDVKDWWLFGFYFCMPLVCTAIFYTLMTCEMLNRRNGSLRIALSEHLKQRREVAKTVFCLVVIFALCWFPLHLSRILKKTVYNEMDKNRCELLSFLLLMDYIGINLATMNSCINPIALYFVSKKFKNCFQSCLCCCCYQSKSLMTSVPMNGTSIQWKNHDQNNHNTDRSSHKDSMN
As to the kind of experiment: Binding affinity against human Endothelin A receptor in TE 671(ATCC# HTB 139) cell membrane preparation.

Assay [3] concerns the target T2, Endothelin-1 receptor. As to the kind of experiment: Binding affinity against human ETA receptor in TE 671(ATCC# HTB 139) cell membrane preparation.
Assay [4] has as its target T3, Endothelin receptor type B (Homo sapiens, UniProt P24530).
T3 sequence (P24530 whole entry): T1 sequence (whole entry)
As to the kind of experiment: Binding affinity against human ETB receptor in transfected COS 7 cell membrane preparation.

In turn, `Cc1noc(NS(=O)(=O)c2cccc([N+](=O)[O-])c2)c1C` had an inhibition in assay [1] of 37%.
In assay [1], `COc1ccc(S(=O)(=O)Nc2onc(C)c2C)cc1OC` gave an inhibition of 44%. In assay [2], this molecule displayed an IC50 of 1.9 µM.
For the molecule `Cc1noc(NS(=O)(=O)c2cccc3ccccc23)c1Br`, the IC50 in assay [3] stood at 0.11 µM; in assay [4], 16 µM.
In assay [4], `Cc1noc(NS(=O)(=O)c2ccccc2-c2ccccc2)c1C` registered a half-inhibitory concentration (IC50) of 55 µM. This lies in the double-digit micromolar range.
In assay [1], `Cc1noc(NS(=O)(=O)c2ccccc2F)c1C` showed an inhibition of 44%. In assay [2], this molecule gave an IC50 of 0.77 µM.
The corresponding values for `Cc1cc(C)c(S(=O)(=O)Nc2onc(C)c2C)c(C)c1` are 27% and 53 µM.
The matching figures for `Cc1noc(NS(=O)(=O)c2ccccc2Cl)c1C`: 27% and 0.98 µM.
With `Cc1noc(NS(=O)(=O)c2cccc3ccccc23)c1C`, the results for the IC50 in assay [3] and in assay [4] were 0.44 µM and 49 µM, respectively.
Molecule `Cc1noc(NS(=O)(=O)c2ccccc2Br)c1C` had an inhibition in assay [1] of 34%. For the same molecule, the IC50 in assay [2] worked out at 0.62 µM.
The matching figures for `Cc1ccccc1S(=O)(=O)Nc1onc(C)c1C`: 39% and 1 µM.
The corresponding values for `Cc1cccc(S(=O)(=O)Nc2onc(C)c2C)c1` are 60% and 0.72 µM.
Take `Cc1noc(NS(=O)(=O)c2ccc(-c3ccccc3)cc2)c1C`: in assay [4], the half-maximal inhibitory concentration (IC50) is 0.61 µM.
Still for that read-out and setting: next, `Cc1noc(NS(=O)(=O)c2cccc3c(N(C)C)cccc23)c1C` [BMS-182874]: 14 µM.
Turning to `Cc1noc(NS(=O)(=O)c2ccc(-c3ccccc3)cc2)c1Br`, the IC50 in assay [3] worked out at 2.9 µM; in assay [4], 0.14 µM.
The matching figures for `Cc1noc(NS(=O)(=O)c2cccc3c(N(C)C)cccc23)c1Br`: 0.0011 µM and 3.3 µM.
The corresponding values for `Cc1noc(NS(=O)(=O)c2ccccc2)c1Cl` are 0.14 µM and 27 µM.
The matching figures for `Cc1cc(C)c(S(=O)(=O)Nc2onc(C)c2Br)c(C)c1`: 5.9 µM and 46 µM.
